Test results reported in ChEMBL document CHEMBL1126492, “Cytotoxicity of ent-udoteatrial diacetate and its analogues” (Bioorg Med Chem Lett, 1993).
Values after ≈ are worked out from the molar mass of the structure shown.

Legend:
[1] = test system: KB; test: In vitro cytotoxicity against human oral epidermoid carcinoma KB cell line; type: functional, cell-based
[2] = test system: A549; test: In vitro cytotoxicity against human lung carcinoma A-549 cell line; type: functional, cell-based

Row | Compound | IC50 [1] [µg/mL] | IC50 [2] [µg/mL]
1 | CC(=O)O[C@H]1O[C@@H]2O[C@@H](OC(C)=O)[C@@H]3CC[C@H]([C@@H]1C)[C@H]23 | > 25 | > 25
2 | CC(=O)O[C@@H]1O[C@@H]2O[C@@H](OC(C)=O)[C@@H]3CC[C@H]([C@H]1CC/C=C(\C)CCC=C(C)C)[C@H]23 | 1.6 (≈ 3.8 µM) | 1.9 (≈ 4.52 µM)
3 | CC(=O)OC1O[C@@H]2O[C@@H](OC(C)=O)[C@@H]3CC[C@@H]([C@H]23)[C@H]1C (stereo not given in full) | > 25 | > 25
4 | CC(=O)O[C@H]1O[C@@H]2O[C@@H](OC(C)=O)[C@@H]3CC[C@H]([C@@H]1CC/C=C(\C)CCC=C(C)C)[C@H]23 | 3.4 (≈ 8.08 µM) | 3.9 (≈ 9.27 µM)
5 | CC(=O)O[C@H]1O[C@@H]2O[C@@H](OC(C)=O)[C@@H]3CC[C@H]([C@H]1CC/C=C(\C)CCC=C(C)C)[C@H]23 | 0.4 (≈ 0.951 µM) | 0.5 (≈ 1.19 µM)
